Assay results: paper PMC4754628 (Scientific Reports, 2016)

Columns and labels:
[1] = tested on: Kv11.1-3.1; assay: Quantitative Western blot of Kv11.1-3.1 expression and trafficking (FG/CG bands) after overnight drug treatment; type: cell-based, human; settings: for Kv11.1-3.1 expression and trafficking rescue (FG band) by selective inhibitors of ALLN targets / Trafficking Rescue?: Western blot; for Kv11.1-3.1 expression and trafficking rescue (FG band) by selective inhibitors of ALLN targets: Kv11.1-3.1 cells, single agents or cocktails; for Trafficking Rescue?: Literature compounds screened for Kv11.1-3.1 trafficking rescue
Procedure: HEK 293 cells were cultured at 37 °C (5% CO2) in Glutamax® Dulbecco’s modified Eagle’s Medium/Ham’s F-12 (Life Technologies, Grand Island, NY) supplemented with 1x Non-essential amino acids (Life Technologies, Grand Island, NY), 1x Penicillin/Streptomycin (Life Technologies, Grand Island, NY) and 10% fetal bovine serum (Sigma Aldrich, Saint Louis, MO). For pharmacological treatments, drugs were dissolved in DMSO and added to media at DMSO final concentrations < 0.2%. Cells were incubated in drug-containing media for 16–20 hours prior to assays.
Cells were washed with ice-cold PBS, harvested in ice-cold PBS, and pelleted by centrifugation at 500 g for 5 minutes. Cell pellets were resuspended with Radioimmunoprecipitation assay (RIPA) buffer (Sigma Aldrich, Saint Louis, MO) and rotated at 4 °C for 1 hour. Lysates were cleared by centrifugation at 16,000 g for 10 minutes and supernatants were analyzed for total protein concentration using a BCA kit (Pierce, Rockford, Illinois). […] Proteins were transferred onto 0.45 μm nitrocellulose membranes and incubated for 1hr in Odyssey® PBS blocking buffer (Li-Cor Biosciences, Lincoln, NE). Membranes were probed with anti-HA (1:5,000, GeneTex, Irvine, CA) and anti-NaK-ATPase (1:2,500, GeneTex, Irvine, CA) primary antibodies in Odyssey® PBS blocking buffer overnight at 4 °C. Anti-HA and anti-NaK-ATPase signals were detected using IRdye 800 donkey anti-rabbit (1:20,000, Li-Cor Biosciences, Lincoln, NE) and IRdye 680 donkey anti-mouse (1:20,000, Li-Cor Biosciences), respectively. The Li-Cor Odyssey® imaging system and software was used for antibody detection and quantification.

[2] = target: T1, Kv11.1-3.1 (Homo sapiens, UniProt Q12809)
[3] = tested on: Kv11.1-3.1; assay: Quantitative immunofluorescence / high content imaging of Kv11.1-3.1 (sub-cellular and cell surface); type: cell-based, human
Procedure: (§1) Stable HEK 293 cell lines expressing either the full-length (1A) or deletion Kv11.1 (3.1) channel variant were plated onto 24 well ibiTreat® plates (ibidi, Martinsried, Germany) and grown until 80–90% confluent. For sub-cellular co-localization studies, cells were fixed with 4% paraformaldehyde in PBS for 15 minutes. Cells were simultaneously permeabilized, blocked, and quenched for background fluorescence by incubation in a PBS solution containing 0.1% Triton X-100, 10% normal goat serum, and 0.75% glycine for 15 minutes. Cells were probed with primary antibodies: anti-extracellular loop hERG (1:1000, Sigma Aldrich, Saint Louis, MO), anti-calnexin (1:1000, Abcam, Cambridge, MA), anti-58K Golgi protein (1:200, Abcam), anti-20s proteasome β1 (1:200, Santa Cruz Biotechnology, Dallas, TX). […]. Cell surface labeling with anti-hERG antibody was performed as described above. Cell images were captured with the Operetta® high content imaging system and quantified with Columbus® image analysis suite (both PerkinElmer, Waltham, MA).
(§2) Electrophysisology data analysis was performed using Axograph X® (Axograph, Berkley, CA) All data is presented as mean ± SEM unless specified. Unpaired T-tests, ANOVA, and subsequent Bonferroni corrections were completed using Prism (Graphpad, La Jolla, CA). Microscopy data was analyzed with linear mixed models with fixed effects for the treatment variables with a random intercept by replicate/well – hERG and RFP levels were log2-transformed prior to analysis. P values < 0.05 were accepted as significant.

[4] = tested on: Kv11.1-1A; assay: Quantitative immunofluorescence / high content imaging of Kv11.1-1A (sub-cellular and cell surface); type: cell-based, human
Procedure: as §1
as §2, with “Unpaired T-tests, ANOVA, and subsequent Bonferroni corrections were completed using Prism (Graphpad, La Jolla, CA).” left out, “P values < 0.05 were accepted as significant.” left out

[5] = tested on: Kv11.1-3.1; assay: Co-immunoprecipitation of HA-tagged Kv11.1-3.1 probed for ubiquitin; type: cell-based, human; settings: bortezomib 16 hours vs DMSO
Procedure: (§3) Dynabeads Protein G® (Life Technologies, Grand Island, NY) were prepared according to the manufacturer’s instructions and incubated with HA.11 anti-HA antibody (BioLegend, San Diego, CA) for 30 minutes and then fixed with BS[3] crosslinking reagent (ThermoFischer Scientific, Waltham, MA) to prevent antibody dissociation. Equal amounts of cell lysates from stably expressing Kv11.1 cell lines were prepared as before and then incubated with the prepared beads overnight at 4 °C. Beads were washed and proteins were eluted per the manufacturer’s instructions and visualized via SDS-PAGE. Membranes were probed with the antibodies described previously and anti-ubiquitin (1:1000, Abcam, Cambridge, MA). Antibody detection was performed as before.

[6] = tested on: Kv11.1-1A; settings: 1A expressing cells
[7] = tested on: Kv11.1-1A; assay: Co-immunoprecipitation of HA-tagged Kv11.1-1A probed for ubiquitin; type: cell-based, human; settings: bortezomib 16 hours vs DMSO
Procedure: as §3

[8] = target: T1, Kv11.1-3.1; settings: treated Kv11.1-3.1 cells, E4031 or DMSO controls, n = 16
[9] = tested on: hERG LQT2 mutants; settings: some LQT2 mutants; cited from earlier work

T1 sequence (Q12809 1-1063 isoform Q12809-7): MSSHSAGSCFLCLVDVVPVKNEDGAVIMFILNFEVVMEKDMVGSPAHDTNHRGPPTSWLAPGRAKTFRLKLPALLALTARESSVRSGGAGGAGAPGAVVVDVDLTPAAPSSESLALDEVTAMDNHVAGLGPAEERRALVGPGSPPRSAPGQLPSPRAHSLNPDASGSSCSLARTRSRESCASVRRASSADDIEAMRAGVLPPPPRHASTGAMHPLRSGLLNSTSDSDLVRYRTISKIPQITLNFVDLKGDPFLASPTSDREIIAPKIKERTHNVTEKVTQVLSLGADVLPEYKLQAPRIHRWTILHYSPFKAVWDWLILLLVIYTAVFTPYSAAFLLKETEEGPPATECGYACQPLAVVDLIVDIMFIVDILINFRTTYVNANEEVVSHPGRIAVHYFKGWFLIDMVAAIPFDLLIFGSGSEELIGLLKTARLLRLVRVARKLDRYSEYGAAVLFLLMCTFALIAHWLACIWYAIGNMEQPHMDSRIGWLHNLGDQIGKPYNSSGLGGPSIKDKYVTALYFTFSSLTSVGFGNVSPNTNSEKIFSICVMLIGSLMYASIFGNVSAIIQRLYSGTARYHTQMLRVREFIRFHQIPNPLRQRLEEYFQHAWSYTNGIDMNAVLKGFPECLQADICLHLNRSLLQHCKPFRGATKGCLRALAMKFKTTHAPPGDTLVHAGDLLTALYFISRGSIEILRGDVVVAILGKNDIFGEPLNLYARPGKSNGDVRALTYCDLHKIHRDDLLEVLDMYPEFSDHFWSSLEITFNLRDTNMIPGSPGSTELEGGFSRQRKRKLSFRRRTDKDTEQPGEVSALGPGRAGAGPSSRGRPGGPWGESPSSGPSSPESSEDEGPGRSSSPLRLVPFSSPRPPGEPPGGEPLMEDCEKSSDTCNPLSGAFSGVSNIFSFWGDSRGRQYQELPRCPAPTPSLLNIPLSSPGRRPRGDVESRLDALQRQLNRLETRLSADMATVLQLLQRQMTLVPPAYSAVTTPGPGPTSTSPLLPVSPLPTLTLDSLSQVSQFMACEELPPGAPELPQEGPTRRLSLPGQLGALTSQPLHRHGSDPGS

With CCCNC(=O)[C@H]1O[C@@H]1C(=O)N[C@H](C(=O)N1CCC[C@H]1C(=O)O)[C@@H](C)CC [CA 078] the “Kv11.1-3.1 expression and trafficking rescue (FG band) by selective inhibitors of ALLN targets” value [1] was “only bortezomib was effective”.

For C[N+](C)(C)CCOC(N)=O.[Cl-] [Carbamoylcholine Chloride], the “Trafficking Rescue?” value [1] was “No”.

For COc1cc(N)c(Cl)cc1C(=O)NC1CCN(CCCOc2ccc(F)cc2)CC1OC (stereo not shown) [Cisapride], the “Trafficking Rescue?” value [1] was “No”.

For COC(=O)Nc1nc2ccc(C(=O)c3cccs3)cc2[nH]1 [Nocodazole], the “Trafficking Rescue?” value [1] was “No”.

With O=C(O)/C(S)=C/c1ccc(I)cc1 [PD 150606] the “Kv11.1-3.1 expression and trafficking rescue (FG band) by selective inhibitors of ALLN targets” value [1] was “only bortezomib was effective”.

With O=C(O)c1ccccc1Nc1ccc(CCc2ccc(Cl)c(Cl)c2)cc1 [PD-118057] the “Trafficking Rescue?” value [1] was “No”.

In the case of CCc1ccccc1NC(=O)CSC(=O)NNC(=O)[C@H](Cc1c[nH]c2ccccc12)NC(=O)OC(C)(C)C [SID 26681509], the “Kv11.1-3.1 expression and trafficking rescue (FG band) by selective inhibitors of ALLN targets” value [1] is reported as “only bortezomib was effective”.

In the case of N#Cc1ccc(COC[C@H]2O[C@@H](n3c(NCc4ccc(Cl)c(Cl)c4)nc4c(N)ncnc43)[C@H](O)[C@@H]2O)cc1 [VER-155008], the “Trafficking Rescue?” value [1] is reported as “No”.

With CC(C)C[C@H](NC(=O)[C@H](Cc1ccccc1)NC(=O)c1cnccn1)B(O)O [bortezomib] the “cell membrane capacitance normalized peak tail current” value ([2]; bortezomib 10 nM treated Kv11.1-3.1 cells, n = 8) was 75.93 ± 11.84 pA/pF, the “effect on Kv11.1-3.1 deactivation rate kinetics (τ deactivation)” value ([2]; treated Kv11.1-3.1 cells vs controls, n = 3) was “no effect” and the “elevation of steady-state Kv11.1-3.1 protein level (RFP-normalized fluorescence)” value ([3]; Kv11.1-3.1 cells cultured with drug, n = 3) was roughly 3 fold. The “Kv11.1-3.1 proteasome domain expression increase” value ([3]; colocalization domain) was “not found to be significant”, the “Kv11.1-3.1 expression in cytoplasm, nuclear regions, ER and Golgi” value ([3]; subcellular segmentation and colocalization domains) was “significantly increased” and the “factor of increase of surface Kv11.1-3.1/RFP ratio” value ([3]; vs untreated Kv11.1-3.1) was 2. For the same compound, the “elevation of Kv11.1 1A protein level (RFP-normalized fluorescence)” value ([4]; Kv11.1-1A cells cultured with drug) was “modest elevation”, the “ratio of surface Kv11.1-1A/RFP, slope m of linear regression” value ([4]; single cells, untreated m = 0.34) was 0.40 and the “ubiquitin signal of immunoprecipitated Kv11.1-3.1 channels” value [5] was “decrease in ubiquitin signal”. For the same compound, the “Kv11.1-1A band changes on Western blot” value [6] was “only increasing 1A CG expression”, the “increase of overall channel expression (Total hERG/NaK ATPase)” value ([1]; Kv11.1-3.1 HEK 293 cells, bortezomib 10 nM) was 6 fold and the “trafficking efficiency (FG/Total hERG)” value ([1]; Kv11.1-3.1 HEK 293 cells, bortezomib 10 nM, n = 4) was 25 ± 2%. The “Kv11.1-3.1 expression and trafficking rescue (FG band) by selective inhibitors of ALLN targets” value [1] was “effective”, the “ubiquitin signal of immunoprecipitated 1A channels” value [7] was “accumulation of ubiquitin signal” and the “signal to background ratio in thallium flux assay” value [8] was “roughly 4 fold”.

In the case of CC(=O)N[C@@H](CSC(=O)[C@]1([C@@H](O)C(C)C)NC(=O)[C@H](C)[C@@H]1O)C(=O)O [lactacystin], the “hERG expression in LQT2 mutants” value [9] is given as “increase hERG expression” and the “trafficking rescue in LQT2 mutants” value [9] is given as “trafficking was unable to be rescued”.
